In patent US20150104466A1, “CYTOMEGALOVIRUS DISINTEGRIN-LIKE PEPTIDES” (priority 2013, published 2015):

Experiments:
HCMV strain AD169 = assay: Virus entry assay: HCMV infectivity by IE gene expression (immunofluorescence); format: cell-based, Human cytomegalovirus; conditions: NHDFs treated with peptide or antibody prior to HCMV challenge
Procedure: (§1) For CMV entry assays, subconfluent cells were grown on glass coverslips in 12-well plates. Integrin neutralizing antibodies or peptides were incubated in serum-free DMEM with cell monolayer for 30 minutes at 37° C. Cells were washed with phosphate-buffered saline (PBS) and incubated with HCMV strain AD169, MCMV Smith strain, or MCMV-GFP for 60 minutes at 37° C. Any non-penetrated virus was inactivated with low-pH citrate buffer (40 mM citric acid, 10 mM KCl, 135 mM NaCl, pH 3.0). The cells were incubated 20-24 hours at 37° C. in DMEM supplemented with 2% bovine calf serum (BCS). […] Experiments were performed in triplicate with a minimum of 1000 cells scored per coverslip. […] Cells were incubated 6 hours at 37° C. in DMEM supplemented with 10% BCS prior to lysis (100 mM sodium phosphate, 10 mM KCl, 1 mM magnesium sulfate, 0.1% NP-40, pH 7.4). β-galactosidase activity was measured by addition of o-nitrophenyl-β-D-galactopyranoside (ONPG) and the absorbance was monitored at 420 nm.
FIG. 2A presents the results of a series of assays wherein NHDFs were treated with HCMV gB disintegrin-like peptide, gB disintegrin-like Null peptide, RGD, or RGE peptide prior to HCMV challenge (as indicated in the FIG. 2A). Infectivity was determined by IE gene expression. […]

HSV-1(KOS)gL86 = assay: HSV entry assay (β-galactosidase activity); format: cell-based, herpes simplex virus-1; conditions: cells treated with peptide, then HSV-1 challenge
Procedure: For CMV entry assays, subconfluent cells were grown on glass coverslips in 12-well plates. Integrin neutralizing antibodies or peptides were incubated in serum-free DMEM with cell monolayer for 30 minutes at 37° C. Cells were washed with phosphate-buffered saline (PBS) and incubated with HCMV strain AD169, MCMV Smith strain, or MCMV-GFP for 60 minutes at 37° C. Any non-penetrated virus was inactivated with low-pH citrate buffer (40 mM citric acid, 10 mM KCl, 135 mM NaCl, pH 3.0). The cells were incubated 20-24 hours at 37° C. in DMEM supplemented with 2% bovine calf serum (BCS). Immunofluorescence analysis was performed as previously described^28 with either mouse anti-IE monoclonal antibody 1203, mouse anti-pp65 monoclonal antibody or rabbit anti-MCMV el polyclonal, followed by detection with a fluorescein-conjugated goat anti-mouse secondary or a fluorescein-conjugated goat anti-rabbit secondary antibody. Nuclei were stained with 300 nM 4′,6-diamidino-2-phenylindole (DAPI). Experiments were performed in triplicate with a minimum of 1000 cells scored per coverslip. […] Cells were incubated 6 hours at 37° C. in DMEM supplemented with 10% BCS prior to lysis (100 mM sodium phosphate, 10 mM KCl, 1 mM magnesium sulfate, 0.1% NP-40, pH 7.4). β-galactosidase activity was measured by addition of o-nitrophenyl-β-D-galactopyranoside (ONPG) and the absorbance was monitored at 420 nm.

HCMV = assay: Viral payload delivery: pp65 localization in fibroblasts after HCMV infection; format: cell-based, Human cytomegalovirus; conditions: human fibroblasts treated, then infected with HCMV
Procedure: as §1
Next, an assay was performed that directly measured delivery of an internal virion component. […] FIG. 6B is a histogram showing the results of a series of assays wherein human fibroblasts were treated with various integrin-blocking agents, infected with HCMV, and then assayed for viral payload as measured by pp65 localization. […]

HCMV AD 169 = assay: Virus binding assay: HCMV attachment to NHDF cells at 4° C. (gB ELISA); format: cell-based, Human cytomegalovirus; conditions: 1 mM peptide, 1:50 DE9, α2 and α6 antibodies 20 μg/mL
Procedure: NHDF cells were grown in 96-well plates and treated with integrin-neutralizing antibodies, peptides, or heparin for 60 minutes at 4° C. Cells were then challenged with HCMV AD 169 at a multiplicity of infection (MOI) of 5 pfu/cell for 60 minutes at 4° C. Unbound virus was removed and cells were washed and fixed with 3% paraformaldehyde. Bound HCMV was detected with monoclonal antibody 27-78, horseradish peroxidase (HRP)-conjugated goat anti-mouse secondary antibody, and ImmunoPure TMB Substrate Kit (Pierce, Rockford, Ill.). Absorbance was measured at 450 nm. All experiments were performed in triplicate.
During virus infection, integrins are utilized as primary viral attachment receptors or as post-attachment (fusion-activating) or internalization receptors.^11 To determine at which step in the HCMV entry pathway integrins are functioning, cell binding (i.e., attachment) experiments were performed, as well as assays to measure viral payload delivery into the cytoplasm (internalization). For the binding assays, virus was bound at 4° C. to allow for stable virus binding, but to restrict fusion and internalization. The results are depicted in FIG. 6A. […] Attachment was measured by gB ELISA.

MCMV = assay: Virus entry assay: MCMV infectivity (e1-positive cells); format: cell-based, Murine cytomegalovirus; conditions: mouse fibroblasts (murine 3T3) treated with peptide, then MCMV challenge
Procedure: as §1
FIG. 4B is a histogram showing the results of an assay wherein GD25, GD25β1 and 3T3 cells were treated with β1, β3, and β1+β3 antibodies, followed by MCMV infection. As described above, infectivity was determined by scoring e1-(early protein) positive cells. […]

NHDF cells = assay: Cytoskeletal rearrangement in NHDF cells (actin staining with phalloidin); format: cell-based, human; conditions: compared to buffer alone
Excerpt: gBDLD Triggers Cytoskeletal Rearrangements: β1 integrins are known inducers of broad signal transduction events. […] To test the role of gBDLD in mediating signaling events, we stimulated NHDF cells with buffer alone, gBDLD, or a known cytoskeletal reorganizer (EGF), followed by actin staining with phalloidin.

Row | Substance | inhibition of HCMV infectivity compared to infectivity seen with no treatment (HCMV strain AD169) | ability of HSV-1 to infect cells after peptide treatment (HSV-1(KOS)gL86) | uptake of pp65 tegument protein (HCMV) | HCMV attachment (binding) to host cells (HCMV AD 169) | MCMV infectivity after peptide treatment (MCMV) | reorganization of the cytoskeleton (NHDF cells)
1 | AVCSMAGGTAAIRAERNIIC (listed as Human cytomegalovirus) [gB disintegrin-like null peptide, null peptide containing alanine substitutions in the disintegrin-like consensus residues, reference compound] | HCMV was able to infect |  |  |  |  | 
2 | RVCSMAQGTDLIRFERNIIC (listed as Human cytomegalovirus) [gB disintegrin-like peptide, 20 amino acid synthetic peptide encompassing the HCMV gB disintegrin-like domain] | dose-dependent inhibitory response to infection | no effect | little uptake of the pp65 tegument protein | no effect on HCMV attachment | dramatic reduction in MCMV infectivity | 
3 | EGF: a known cytoskeletal reorganizer [reference compound] |  |  |  |  |  | triggered a dramatic reorganization of the cytoskeleton
